# From patent publication US6800650B2, “Pyridine and quinoline derivatives” (Hoffmann-La Roche Inc., priority 2002, dated 2004)
# Target: T1, human DPP-IV (Homo sapiens, UniProt P27487)
# T1 construct: made in house; host or cells: Pichia pastoris, purified from the culture medium
# Test: DPP-IV activity assay (colorimetric / fluorometric), IC50 determination
# Type: biochemical
# Details: natural human DPP-IV from human plasma pool or recombinant human DPP-IV; 37° C., pH 7.8
# Protocol: The following tests were carried out in order to determine the activity of the compounds of formula I.
# Activity of DPP-IV inhibitors are tested with natural human DPP-IV derived from a human plasma pool or with recombinant human DPP-IV. Human citrate plasma from different donors is pooled, filtered through a 0.2 micron membrane under sterile conditions, and aliquots of 1 ml are shock frozen and stored at −120° C. until used. In the colorimetric DPP-IV assay 5 to 10 μl human plasma, and in the fluorometric assay 1.0 μl of human plasma in a total assay volume of 100 μl is used as an enzyme source. The cDNA of the human DPP-IV sequence of amino acid 31- to 766, restricted for the N-terminus and the transmembrane domain, is cloned into pichia pastoris. The sequence is available under Accession Number NM_001935. It is also disclosed, for example, in Misumi et al. (1992), molecular cloning and sequence analysis of human dipeptidyl peptidase IV, a serine proteinase of the cell surface. Biochim Biophys. Acta 1131(3), 333-336. Human DPP-IV is expressed and purified from the culture medium using conventional column chromatography including size exclusion and anion and cation chromatography. The purity of the final enzyme preparation of Coomassie blue SDS-PAGE is >95%. In the colorimetric DPP-IV assay 20 ng rec.-h DPP-IV and in the fluorometric assay 2 ng rec-h DPP-IV in a total assay volume of 100 μl is used as an enzyme source.
# In the fluorogenic assay Ala-Pro-7-amido-4-trifluoromethylcoumarin (Calbiochem No 125510) is used as a substrate. A 20 mM stock solution in 10% DMF/H2O is stored at −20° C. until use. In IC50 determinations a final substrate concentration of 50 μM is used. In assays to determine kinetic parameters as Km, Vmax, Ki, the substrate concentration is varied between 10 μM and 500 μM.
# In the colorimetric assay H-Ala-Pro-pNA.HCl (Bachem L-1115) is used as a substrate. A 10 mM stock solution in 10% MeOH/H2O is stored at −20° C. until use. In IC50 determinations a final substrate concentration of 200 μM is used. In assays to determine kinetic parameters as Km, Vmax, Ki, the substrate concentration is varied between 100 μM and 2000 μM.
# Fluorescence is detected in a Perkin Elmer Luminescence Spectrometer LS 50B at an excitation wavelength of 400 nm and an emission wavelength of 505 nm continuously every 15 seconds for 10 to 30 minutes. Initial rate constants are calculated by best fit linear regression.
# The absorption of pNA i.e., para-nitroanilin, liberated from the colorimetric substrate is detected in a Packard SpectraCount at […] continuously every 2 minutes for 30 to 120 minutes. Initial rate constants are calculated by best fit linear regression.
# DPP-IV activity assays are performed in 96 well plates at 37° C. in a total assay volume of 100 μl. The assay buffer consists of 50 mM Tris/HCl pH 7.8 containing 0.1 mg/ml BSA and 100 mM NaCl. Test compounds are solved in 100% DMSO, diluted to the desired concentration in 10% DMSO/H2O. The final DMSO concentration in the assay is 1% (v/v). At this concentration enzyme inactivation by DMSO is <5%. Compounds are with (10 minutes at 37° C.) and without preincubation with the enzyme. Enzyme reactions are started with substrate application followed by immediate mixing.
# IC50 determinations of test compounds are calculated by non-linear best fit regression of the DPP-IV inhibition of at least 5 different compound concentrations. Kinetic parameters of the enzyme reaction are calculated at least 5 different substrate concentrations and at least 5 different test compound concentrations.
# T1 sequence (P27487 31-766): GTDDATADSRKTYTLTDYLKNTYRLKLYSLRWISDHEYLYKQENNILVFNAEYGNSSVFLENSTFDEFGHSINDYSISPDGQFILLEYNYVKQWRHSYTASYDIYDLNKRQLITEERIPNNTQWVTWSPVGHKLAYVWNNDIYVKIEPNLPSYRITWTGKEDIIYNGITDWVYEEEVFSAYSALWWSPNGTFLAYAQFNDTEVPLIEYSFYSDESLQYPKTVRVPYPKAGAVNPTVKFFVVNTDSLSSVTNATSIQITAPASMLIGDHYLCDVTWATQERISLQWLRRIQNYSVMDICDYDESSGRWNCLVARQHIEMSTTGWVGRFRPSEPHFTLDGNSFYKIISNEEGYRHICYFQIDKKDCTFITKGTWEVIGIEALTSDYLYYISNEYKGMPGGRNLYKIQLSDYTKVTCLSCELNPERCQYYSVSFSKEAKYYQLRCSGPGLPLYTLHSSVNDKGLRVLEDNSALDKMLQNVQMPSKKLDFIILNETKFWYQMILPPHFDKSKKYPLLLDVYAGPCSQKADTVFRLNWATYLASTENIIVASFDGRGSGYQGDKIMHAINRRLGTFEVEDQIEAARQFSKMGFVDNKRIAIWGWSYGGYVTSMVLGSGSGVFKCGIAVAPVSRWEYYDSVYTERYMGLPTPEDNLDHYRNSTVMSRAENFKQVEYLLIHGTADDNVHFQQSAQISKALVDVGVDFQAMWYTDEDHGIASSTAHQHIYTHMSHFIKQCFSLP
row,Compound,IC50 [µM]
1,"NCc1c(N)nc2c(c1-c1ccc(Cl)cc1Cl)CCc1ccccc1-2 [Example 3, 3-Aminomethyl-4-(2,4-dichloro-phenyl)-5,6-dihydro-benzo[h]quinolin-2-ylamine]",0.045
2,"COc1cc2c(cc1OC)-c1nc(N)c(CN)c(-c3ccc(Cl)cc3Cl)c1C2 [Example 7, 3-Aminomethyl-4-(2,4-dichloro-phenyl)-7,8-dimethoxy-5H-indeno[1,2-b]pyridin-2-ylamine]",0.0027
3,"NCc1c(N)nc2c(c1-c1ccc(Cl)cc1Cl)COc1ccccc1-2 [Example 9, 2-Aminomethyl-1-(2,4-dichloro-phenyl)-10H-9-oxa-4-aza-phenanthren-3-ylamine]",0.018
4,"NCc1c(N)nc2c(c1-c1ccc(Cl)cc1Cl)CCc1sccc1-2 [Example 10, 3-Aminomethyl-4-(2,4-dichloro-phenyl)-5,6-dihydro-thieno[2,3-h]quinolin-2-ylamine]",0.08
5,"Cc1ccc(-c2c(CN)c(N)nc3ccccc23)cc1 [Example 25, 3-Aminomethyl-4-p-tolyl-quinolin-2-ylamine]",1.91
6,"NCc1c(N)nc2ccc(Cl)cc2c1-c1ccccc1Cl [Example 28, 3-Aminomethyl-6-chloro-4-(2-chloro-phenyl)-quinolin-2-ylamine]",1.59
7,"NCc1c(N)nc2ccccc2c1-c1ccccc1Cl [Example 32, 3-Aminomethyl-4-(2-chloro-phenyl)-quinolin-2-ylamine]",0.366
